The source made the active and inactive calls.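 How the source made its calls: active means IC50 under 10 µM in the follow-up dose response; inactive means IC50 10 µM or more, or under 40% single-dose inhibition.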

In the first assay the target is Tyrosine-protein phosphatase non-receptor type 22 (Homo sapiens) (UniProt Q9Y2R2). Briefly: PTPN22 enzyme inhibition – biochemical, DiFMUP fluorescence, retest and dose response, confirmation (AID 1253). The conditions noted are these: recombinant LYP.
Sequence of Tyrosine-protein phosphatase non-receptor type 22 (Homo sapiens) (Q9Y2R2 whole entry, looked up): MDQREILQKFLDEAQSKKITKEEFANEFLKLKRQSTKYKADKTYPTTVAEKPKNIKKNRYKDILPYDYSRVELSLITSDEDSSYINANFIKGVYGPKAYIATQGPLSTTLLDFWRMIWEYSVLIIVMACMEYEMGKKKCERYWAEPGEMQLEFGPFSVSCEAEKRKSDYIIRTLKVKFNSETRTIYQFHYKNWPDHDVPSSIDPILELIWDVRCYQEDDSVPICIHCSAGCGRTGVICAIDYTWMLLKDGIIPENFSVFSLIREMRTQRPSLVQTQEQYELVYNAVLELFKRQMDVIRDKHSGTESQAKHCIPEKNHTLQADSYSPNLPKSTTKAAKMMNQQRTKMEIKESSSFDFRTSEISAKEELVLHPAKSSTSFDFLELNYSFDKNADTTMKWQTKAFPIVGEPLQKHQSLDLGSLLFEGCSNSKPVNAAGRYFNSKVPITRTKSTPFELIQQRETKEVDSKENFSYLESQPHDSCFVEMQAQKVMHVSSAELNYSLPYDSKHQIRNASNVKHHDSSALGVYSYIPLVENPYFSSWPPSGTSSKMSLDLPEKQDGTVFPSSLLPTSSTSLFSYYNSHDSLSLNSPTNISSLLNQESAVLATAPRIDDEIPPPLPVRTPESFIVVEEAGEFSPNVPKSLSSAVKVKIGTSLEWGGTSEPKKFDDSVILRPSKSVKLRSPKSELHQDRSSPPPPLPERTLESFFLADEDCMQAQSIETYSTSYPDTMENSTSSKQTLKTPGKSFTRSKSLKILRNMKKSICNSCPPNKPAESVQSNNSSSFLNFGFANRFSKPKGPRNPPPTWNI
As a reminder, the IC50 is the midpoint of a concentration-inhibition curve. As to `COc1cc(-c2nnc(SCc3cc(=O)oc4cc(O)c(O)cc34)o2)cc(OC)c1OC`, the IC50 is 2600 nM.
Same read-out and setting: as for `Cc1ccc(NC(=O)CN2C(=O)S/C(=C\c3cccn3-c3cccc(C(=O)O)c3)C2=O)c(C)c1`, the figure is 1270 nM.
On the same count and under the same terms, as for `CC(C)C(C(=O)O)N1C(=O)/C(=C/C=C/c2ccco2)SC1=S` (stereo not given), the figure is 2940 nM; as for `COc1cccc(OC)c1-c1nn2c(-c3cc(-c4ccccc4)n[nH]3)nnc2s1`, 4710 nM; as for `Cn1nc(-c2ccc(Cl)cc2)nc2c(=O)n(C)c(=O)nc1-2`, > 10000 nM (inactive).

The same assay, now with this note: recombinant LYP, at 10 µM, active compounds read high.
For the compound `Cc1nc(S/C(=C/c2ccc(-c3cccc(Cl)c3)o2)C(=O)O)n[nH]1`, the inhibition entry was “inactive”.
Still for that read-out and setting: with `Nc1nnc(SCC(=O)Nc2ccc(S(=O)(=O)N3CCOCC3)cc2)s1` the entry was “inactive”; with `COc1cccc(-c2nnc(NC(=O)c3ccc(S(=O)(=O)N(CC(C)C)CC(C)C)cc3)o2)c1`, “inactive”; with `CCCCCCCCC/C(=N\O)c1ccccn1`, “inactive”.
Still for that read-out and setting: with `Cc1ccc2nc(NC(=S)NC(=O)c3cccs3)sc2c1` the entry was “inactive”; with `Cc1cc(-c2csc(N)n2)c(C)n1CCC(C)C`, “inactive”.
On the same count and under the same terms, as for `O=C(N/N=C/c1cccc([N+](=O)[O-])c1)c1cc2c(ccc3ccccc32)o1`, the entry is “inactive”; as for `CC(C)CNc1nnnc2c1sc1nc(N3CCOCC3)c3c(c12)CC(C)(C)SC3`, “inactive”.
Take `Cc1ccc2nc(NC(=O)c3cccc(-c4cc5ccccc5oc4=O)c3)sc2c1`: the inhibition result was “inactive”.
Still for that read-out and setting: with `CCOc1ccc(N2C(=O)CS/C2=C(\C(Cl)=C(Cl)Cl)[N+](=O)[O-])cc1` the entry was “inactive”; with `O=c1c(-c2nnc(SCc3ccc(Cl)cc3Cl)o2)cccn1Cc1ccccc1`, “inactive”.
`O=C1C2C(C(=O)N1CCc1ccccc1)C1C=CC2C12CC2` (stereo not given): the inhibition result is “inactive”.
On the same count and under the same terms, as for `CCOc1ccc(-c2csc(N)c2C(=O)OC)cc1`, the entry is “inactive”; as for `N#Cc1nc(-c2ccc(OCc3ccc(Cl)cc3)cc2)oc1NCCCn1ccnc1`, “inactive”; as for `O=C(CSc1nc2ccc(S(=O)(=O)N3CCOCC3)cc2[nH]1)N1CCOCC1`, “inactive”.
The same measure, in the same setting: with `CC(/C=N/n1c(C2CCCCC2)n[nH]c1=S)=C\c1ccccc1` the entry was “inactive”; with `COCc1cc(C)nc(Nc2ccccc2C)c1C#N`, “inactive”; with `C=CCNC(=S)NNC(=O)c1cccn(Cc2ccc(Cl)cc2)c1=O`, “inactive”.
For `Cc1nn(-c2ccccc2)c(Cl)c1/C=N/Nc1ccc(S(=O)(=O)Nc2ccccc2C(=O)O)cc1[N+](=O)[O-]`, the inhibition result was “inactive”.
Consider `CCNC(=S)NNC(=O)c1cccn(Cc2ccc(Cl)cc2Cl)c1=O`, for which the inhibition result was “inactive”.
With `c1ccc(-c2nccc(-c3ccc(-n4cnc5ccccc54)cc3)n2)nc1`, the inhibition entry is “inactive”.
For `COc1ccc(S(=O)(=O)N2CC3CCCN3c3cc(C(F)(F)F)ccc32)cc1` (stereo not given), the inhibition result is “inactive”.
On to `O=C(OCC1OC(n2cnc3c(N(C(=O)c4ccccc4)C(=O)c4ccccc4)ncnc32)C(O)C1F)c1ccccc1` (stereo not given), for which the inhibition result is “inactive”.
For the compound `CCn1c(CSc2nc3ccccc3s2)nnc1SCC(=O)c1ccc(O)c(O)c1`, the inhibition result is “inactive”.
On the same count and under the same terms, as for `CCNC(=O)COc1cc(C)c(Cl)c(C)c1`, the entry is “inactive”; as for `N#Cc1ccccc1CN1C(=O)S/C(=C/c2cccn2-c2cccc(C(=O)O)c2)C1=O`, “inactive”; as for `O=C(Cn1c2ccccc2c(=O)c2ccccc21)N/N=C/c1cc([N+](=O)[O-])ccc1N1CCCCCC1`, “inactive”.
Consider `COc1cccc(/C=N/NC(=O)c2ccc(-c3ccccc3)cc2)c1O`, for which the inhibition entry is “inactive”.
Regarding `O=C(NNC(=O)c1ccc2ccccc2c1O)c1ccccc1Cl`, the inhibition entry was “inactive”.
Same read-out and setting: with `CCOC(=O)CC(=O)CSc1nc2c(C)c(C)ccc2cc1C` the entry was “inactive”.
